# Patent publication US20220009920A1 (GB005, Inc., priority 2020, published 2022)
# Tests used:
# Experiment in all cases: Large panel kinase profiling
# Type in all cases: biochemical
# Details in all cases: 1 μM test article, 1 mM ATP
# [1] = target: T1, MAPKAPK5/MK5 (Homo sapiens, UniProt Q8IW41)
# T1 construct: AssayQuant Technologies, Inc. (service provider)
# T1 sequence (Q8IW41 1-473): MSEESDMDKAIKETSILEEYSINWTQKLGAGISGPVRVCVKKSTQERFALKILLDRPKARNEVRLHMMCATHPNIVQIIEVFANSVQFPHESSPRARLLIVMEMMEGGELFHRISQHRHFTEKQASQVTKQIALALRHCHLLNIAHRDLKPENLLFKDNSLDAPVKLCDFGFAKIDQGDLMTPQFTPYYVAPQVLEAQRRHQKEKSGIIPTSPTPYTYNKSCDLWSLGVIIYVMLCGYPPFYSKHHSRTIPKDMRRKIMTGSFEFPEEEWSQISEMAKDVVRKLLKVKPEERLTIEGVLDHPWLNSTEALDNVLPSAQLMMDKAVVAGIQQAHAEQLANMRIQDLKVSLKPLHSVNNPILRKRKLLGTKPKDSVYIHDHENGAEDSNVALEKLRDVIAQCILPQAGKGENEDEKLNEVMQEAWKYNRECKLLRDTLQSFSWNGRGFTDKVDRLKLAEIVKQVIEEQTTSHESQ
# Outline: (§1)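 CSox-Sensor fluorescence readout; test article 1 μM, ATP 1 mM, 30° C.; kinetic reads at 1-min intervals, Ex 360/Em 485 nm.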
# [2] = target: T2, AURKA/AURA (Homo sapiens, UniProt O14965)
# T2 sequence (O14965 1-403): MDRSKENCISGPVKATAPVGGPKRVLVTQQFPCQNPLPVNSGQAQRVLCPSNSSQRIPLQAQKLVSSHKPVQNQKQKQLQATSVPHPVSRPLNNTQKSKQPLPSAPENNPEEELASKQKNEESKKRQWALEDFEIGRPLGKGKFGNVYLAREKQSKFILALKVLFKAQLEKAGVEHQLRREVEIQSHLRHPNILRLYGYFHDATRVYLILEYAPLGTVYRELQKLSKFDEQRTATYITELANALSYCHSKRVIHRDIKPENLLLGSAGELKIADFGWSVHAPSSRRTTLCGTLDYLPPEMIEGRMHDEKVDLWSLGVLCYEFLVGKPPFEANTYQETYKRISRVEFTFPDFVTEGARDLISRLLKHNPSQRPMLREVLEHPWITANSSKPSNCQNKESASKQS
# Outline: as §1
# [3] = target: T3, DAPK2 (Homo sapiens, UniProt Q9UIK4)
# T3 construct: AssayQuant Technologies, Inc. (service laboratory)
# Outline: as §1
# [4] = target: T4, MAPK7/ERK5 (Homo sapiens, UniProt Q13164)
# T4 construct: AssayQuant Technologies, Inc. (service provider)
# Outline: as §1
# [5] = target: PRKCD/CPKCD (Homo sapiens, UniProt Q05655)
# Outline: as §1
# [6] = target: LIMK1 (Homo sapiens, UniProt P53667)
# Outline: as §1
# [7] = target: LRRK2 (Homo sapiens, UniProt Q5S007)
# Outline: as §1
# [8] = target: T5, CRIK/CIT (Homo sapiens, UniProt O14578)
# T5 construct: AssayQuant Technologies, Inc. (ran the panel)
# Outline: as §1
# [9] = target: T6, SRPK2 (Homo sapiens, UniProt P78362)
# T6 construct: AssayQuant Technologies, Inc. (contract assay)
# Outline: as §1
# [10] = target: T7, BRSK1 (Homo sapiens, UniProt Q8TDC3)
# T7 sequence (Q8TDC3 1-778): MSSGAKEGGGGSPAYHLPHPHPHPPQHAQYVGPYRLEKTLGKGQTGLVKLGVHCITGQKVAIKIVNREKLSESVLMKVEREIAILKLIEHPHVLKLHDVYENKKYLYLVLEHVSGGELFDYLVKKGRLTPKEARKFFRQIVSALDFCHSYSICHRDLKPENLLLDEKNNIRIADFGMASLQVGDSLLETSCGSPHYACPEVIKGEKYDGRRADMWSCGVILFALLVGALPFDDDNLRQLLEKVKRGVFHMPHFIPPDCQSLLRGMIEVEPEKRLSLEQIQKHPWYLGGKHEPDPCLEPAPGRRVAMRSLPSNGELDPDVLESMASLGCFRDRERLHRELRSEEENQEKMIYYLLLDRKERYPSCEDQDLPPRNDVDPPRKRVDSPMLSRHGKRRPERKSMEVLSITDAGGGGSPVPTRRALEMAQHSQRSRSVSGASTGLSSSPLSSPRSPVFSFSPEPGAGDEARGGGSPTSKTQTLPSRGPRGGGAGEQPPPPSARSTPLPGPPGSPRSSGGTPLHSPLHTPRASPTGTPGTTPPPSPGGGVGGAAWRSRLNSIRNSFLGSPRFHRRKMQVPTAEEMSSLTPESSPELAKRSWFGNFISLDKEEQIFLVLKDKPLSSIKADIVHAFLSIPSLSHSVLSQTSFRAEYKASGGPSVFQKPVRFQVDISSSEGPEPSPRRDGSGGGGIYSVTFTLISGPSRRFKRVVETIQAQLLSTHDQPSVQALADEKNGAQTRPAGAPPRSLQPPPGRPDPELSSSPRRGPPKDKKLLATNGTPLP
# Outline: as §1
# [11] = target: ABL2 (Homo sapiens, UniProt P42684)
# Outline: as §1
# [12] = target: T8, MAPKAPK2/MK2 (Homo sapiens, UniProt P49137)
# T8 construct: AssayQuant Technologies, Inc. (service provider)
# Outline: as §1
# [13] = target: T9, HIPK3 (Homo sapiens, UniProt Q9H422)
# T9 construct: AssayQuant Technologies, Inc. (service provider)
# Outline: as §1
# [14] = target: T10, DAPK3 (Homo sapiens, UniProt O43293)
# T10 construct: AssayQuant Technologies, Inc. (service laboratory)
# Outline: as §1
# Chain of ABL2 (P42684 whole entry): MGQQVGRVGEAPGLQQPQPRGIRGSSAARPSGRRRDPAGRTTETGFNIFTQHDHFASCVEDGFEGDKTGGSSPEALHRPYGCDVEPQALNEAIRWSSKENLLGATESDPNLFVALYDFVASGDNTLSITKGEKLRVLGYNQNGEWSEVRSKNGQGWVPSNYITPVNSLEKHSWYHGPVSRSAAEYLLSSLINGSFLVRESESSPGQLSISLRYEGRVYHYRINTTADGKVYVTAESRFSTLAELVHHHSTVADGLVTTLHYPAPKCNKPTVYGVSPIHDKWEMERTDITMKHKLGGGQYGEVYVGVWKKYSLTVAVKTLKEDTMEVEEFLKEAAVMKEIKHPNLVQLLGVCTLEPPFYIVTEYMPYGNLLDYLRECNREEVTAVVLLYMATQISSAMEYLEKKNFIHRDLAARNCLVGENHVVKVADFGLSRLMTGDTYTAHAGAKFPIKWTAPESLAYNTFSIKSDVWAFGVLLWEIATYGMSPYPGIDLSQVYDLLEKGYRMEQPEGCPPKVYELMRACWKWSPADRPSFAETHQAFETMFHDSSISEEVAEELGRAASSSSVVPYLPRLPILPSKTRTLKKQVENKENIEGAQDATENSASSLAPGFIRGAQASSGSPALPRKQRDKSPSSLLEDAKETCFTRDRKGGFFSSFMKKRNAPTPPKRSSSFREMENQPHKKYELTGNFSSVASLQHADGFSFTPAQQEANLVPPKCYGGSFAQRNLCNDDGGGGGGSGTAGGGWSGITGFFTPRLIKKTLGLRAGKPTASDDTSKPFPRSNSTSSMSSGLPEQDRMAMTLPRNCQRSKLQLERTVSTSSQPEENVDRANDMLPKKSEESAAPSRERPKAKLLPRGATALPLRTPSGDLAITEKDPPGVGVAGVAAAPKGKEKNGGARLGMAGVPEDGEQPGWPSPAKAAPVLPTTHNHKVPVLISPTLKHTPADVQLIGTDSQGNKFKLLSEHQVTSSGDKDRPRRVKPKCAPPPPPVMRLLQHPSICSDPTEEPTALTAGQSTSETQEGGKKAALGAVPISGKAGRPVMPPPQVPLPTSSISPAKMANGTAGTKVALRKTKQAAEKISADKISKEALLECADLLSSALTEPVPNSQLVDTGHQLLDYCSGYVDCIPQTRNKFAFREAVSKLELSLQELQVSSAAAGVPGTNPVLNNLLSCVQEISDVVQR
# T3 sequence (Q9UIK4 whole entry, species assumed): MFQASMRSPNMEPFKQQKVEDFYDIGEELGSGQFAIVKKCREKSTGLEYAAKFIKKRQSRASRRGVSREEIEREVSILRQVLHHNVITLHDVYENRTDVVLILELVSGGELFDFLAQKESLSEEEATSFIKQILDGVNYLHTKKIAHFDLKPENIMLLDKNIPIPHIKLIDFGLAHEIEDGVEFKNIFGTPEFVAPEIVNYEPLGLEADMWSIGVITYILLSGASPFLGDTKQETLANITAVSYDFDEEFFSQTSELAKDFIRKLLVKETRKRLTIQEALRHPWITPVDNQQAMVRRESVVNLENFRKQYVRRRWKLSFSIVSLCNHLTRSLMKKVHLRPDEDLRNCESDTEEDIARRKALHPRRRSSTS
# T6 sequence (P78362 whole entry, species assumed): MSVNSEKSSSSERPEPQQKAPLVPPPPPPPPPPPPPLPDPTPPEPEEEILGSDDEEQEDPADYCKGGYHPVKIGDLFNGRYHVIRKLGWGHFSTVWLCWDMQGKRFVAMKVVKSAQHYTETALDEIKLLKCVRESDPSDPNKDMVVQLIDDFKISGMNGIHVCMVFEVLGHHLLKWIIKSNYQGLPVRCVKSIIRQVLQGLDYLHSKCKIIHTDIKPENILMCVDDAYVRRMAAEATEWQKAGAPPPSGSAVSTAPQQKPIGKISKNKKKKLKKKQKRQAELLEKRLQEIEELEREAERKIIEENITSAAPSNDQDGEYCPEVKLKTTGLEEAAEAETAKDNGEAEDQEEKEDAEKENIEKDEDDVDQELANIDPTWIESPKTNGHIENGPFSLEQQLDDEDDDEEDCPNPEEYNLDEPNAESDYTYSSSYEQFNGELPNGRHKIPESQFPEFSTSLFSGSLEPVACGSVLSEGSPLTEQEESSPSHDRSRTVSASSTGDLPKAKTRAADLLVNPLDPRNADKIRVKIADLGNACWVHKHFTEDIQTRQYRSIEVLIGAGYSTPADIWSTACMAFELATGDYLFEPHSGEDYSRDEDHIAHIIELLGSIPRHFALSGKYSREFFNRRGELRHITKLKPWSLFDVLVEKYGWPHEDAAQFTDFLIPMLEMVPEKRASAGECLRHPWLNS
# T9 sequence (Q9H422 whole entry, species assumed): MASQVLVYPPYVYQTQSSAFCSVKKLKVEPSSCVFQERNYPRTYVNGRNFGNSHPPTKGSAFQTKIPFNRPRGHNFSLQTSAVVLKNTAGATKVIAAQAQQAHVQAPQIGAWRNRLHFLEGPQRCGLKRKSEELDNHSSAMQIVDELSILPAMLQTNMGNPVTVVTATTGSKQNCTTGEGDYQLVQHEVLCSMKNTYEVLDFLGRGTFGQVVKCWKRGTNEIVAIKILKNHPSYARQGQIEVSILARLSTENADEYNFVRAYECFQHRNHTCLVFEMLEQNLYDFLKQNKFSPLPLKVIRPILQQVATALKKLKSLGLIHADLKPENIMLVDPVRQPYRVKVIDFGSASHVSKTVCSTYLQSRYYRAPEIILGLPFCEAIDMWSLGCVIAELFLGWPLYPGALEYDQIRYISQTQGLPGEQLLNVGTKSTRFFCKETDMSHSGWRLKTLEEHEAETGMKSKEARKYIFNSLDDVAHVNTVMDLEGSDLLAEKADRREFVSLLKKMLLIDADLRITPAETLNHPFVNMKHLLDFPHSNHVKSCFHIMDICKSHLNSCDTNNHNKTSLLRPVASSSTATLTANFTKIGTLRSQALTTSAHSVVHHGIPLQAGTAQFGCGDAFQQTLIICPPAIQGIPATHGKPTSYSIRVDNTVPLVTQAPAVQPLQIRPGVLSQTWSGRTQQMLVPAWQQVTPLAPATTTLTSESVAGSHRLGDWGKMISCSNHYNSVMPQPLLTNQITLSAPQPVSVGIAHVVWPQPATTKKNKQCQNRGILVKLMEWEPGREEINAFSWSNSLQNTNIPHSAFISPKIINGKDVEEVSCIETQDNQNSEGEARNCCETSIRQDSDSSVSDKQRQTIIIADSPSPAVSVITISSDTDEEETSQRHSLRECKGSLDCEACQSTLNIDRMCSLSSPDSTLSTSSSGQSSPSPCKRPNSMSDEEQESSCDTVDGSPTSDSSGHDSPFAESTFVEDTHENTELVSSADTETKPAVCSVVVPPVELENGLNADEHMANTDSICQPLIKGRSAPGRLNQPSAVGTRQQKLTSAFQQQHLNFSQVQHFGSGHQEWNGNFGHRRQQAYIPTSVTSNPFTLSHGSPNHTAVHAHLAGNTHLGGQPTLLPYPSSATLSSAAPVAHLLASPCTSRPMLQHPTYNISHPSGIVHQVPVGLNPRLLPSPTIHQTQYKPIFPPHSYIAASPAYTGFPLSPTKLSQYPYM
# T4 sequence (Q13164 whole entry): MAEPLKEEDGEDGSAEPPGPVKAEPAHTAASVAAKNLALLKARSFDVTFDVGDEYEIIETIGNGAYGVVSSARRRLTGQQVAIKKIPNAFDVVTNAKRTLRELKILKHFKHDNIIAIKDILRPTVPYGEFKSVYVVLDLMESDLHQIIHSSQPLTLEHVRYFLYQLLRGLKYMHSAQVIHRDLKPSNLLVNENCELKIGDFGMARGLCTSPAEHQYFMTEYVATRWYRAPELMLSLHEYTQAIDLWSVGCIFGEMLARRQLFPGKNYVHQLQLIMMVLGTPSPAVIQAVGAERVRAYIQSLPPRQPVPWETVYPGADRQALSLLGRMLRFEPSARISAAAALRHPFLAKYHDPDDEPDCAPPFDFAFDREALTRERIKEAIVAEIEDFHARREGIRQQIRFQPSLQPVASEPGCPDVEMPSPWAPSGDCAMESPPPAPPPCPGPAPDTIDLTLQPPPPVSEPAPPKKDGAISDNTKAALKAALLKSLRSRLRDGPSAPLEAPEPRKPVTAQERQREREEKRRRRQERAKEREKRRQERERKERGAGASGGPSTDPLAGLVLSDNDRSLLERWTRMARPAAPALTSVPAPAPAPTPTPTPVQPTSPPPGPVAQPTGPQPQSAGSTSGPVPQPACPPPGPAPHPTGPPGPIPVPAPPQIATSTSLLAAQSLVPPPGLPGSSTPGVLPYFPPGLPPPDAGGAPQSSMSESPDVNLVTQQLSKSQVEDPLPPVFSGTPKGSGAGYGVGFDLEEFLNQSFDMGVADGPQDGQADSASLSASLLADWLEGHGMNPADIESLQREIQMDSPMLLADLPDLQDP
# Chain of LIMK1 (P53667 whole entry, species assumed): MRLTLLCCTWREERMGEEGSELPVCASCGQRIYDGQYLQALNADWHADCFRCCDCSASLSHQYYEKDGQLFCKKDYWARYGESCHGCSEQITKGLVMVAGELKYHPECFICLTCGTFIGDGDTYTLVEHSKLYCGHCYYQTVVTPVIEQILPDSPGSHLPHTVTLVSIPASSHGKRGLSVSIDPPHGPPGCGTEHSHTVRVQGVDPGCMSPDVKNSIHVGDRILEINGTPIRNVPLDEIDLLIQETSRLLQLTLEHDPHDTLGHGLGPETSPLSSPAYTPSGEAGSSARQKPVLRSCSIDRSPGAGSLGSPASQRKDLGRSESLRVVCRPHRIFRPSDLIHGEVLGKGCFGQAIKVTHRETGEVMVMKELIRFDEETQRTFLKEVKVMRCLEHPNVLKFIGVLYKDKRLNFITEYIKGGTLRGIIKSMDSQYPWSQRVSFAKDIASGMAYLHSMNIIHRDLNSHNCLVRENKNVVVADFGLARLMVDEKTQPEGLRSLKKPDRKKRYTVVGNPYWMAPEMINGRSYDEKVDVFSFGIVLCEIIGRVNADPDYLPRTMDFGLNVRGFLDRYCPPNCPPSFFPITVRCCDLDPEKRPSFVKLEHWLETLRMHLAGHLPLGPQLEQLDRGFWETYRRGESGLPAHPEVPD
Structure (SMILES),inhibition at 1 µM [1] [%],inhibition at 1 µM [2] [%],inhibition at 1 µM [3] [%],inhibition at 1 µM [4] [%],inhibition at 1 µM [5] [%],inhibition at 1 µM [6] [%],inhibition at 1 µM [7] [%],inhibition at 1 µM [8] [%],inhibition at 1 µM [9] [%],inhibition at 1 µM [10] [%],inhibition at 1 µM [11] [%],inhibition at 1 µM [12] [%],inhibition at 1 µM [13] [%],inhibition at 1 µM [14] [%]
"C=CC(=O)N1CCCC(c2c(F)cc(C(N)=O)c3[nH]c4c(c23)CCCCC4)C1 (single isomer, unassigned) [Compound 5-6]",3.7,-42,-19.1,-0.7,-42.2,-7.2,-8.9,-9.9,24.9,-30.9,-29.7,-5.9,-11.2,25.9
"C=CC(=O)N1CCC[C@@H](c2c(F)cc(C(N)=O)c3[nH]c4c(c23)CCC4)C1 [Compound 10-2, (S)-8-(1-acryloylpiperidin-3-yl)-7-fluoro-1,2,3,4-tetrahydrocyclo-penta[b]indole-5-carboxamide]",-12.6,-12.1,13.9,-4.3,-0.6,-10.7,-7.2,11.1,-29.1,10.1,1.9,-7.1,34.7,-4.9
"C=CC(=O)N1CCC[C@@H](c2c(F)cc(C(N)=O)c3[nH]c4c(c23)CC2(CC4)CC2)C1 [Compound 6-2, (S)-5-(1-acryloylpiperidin-3-yl)-6-fluoro-1,2,4,9-tetrahydrospiro[carbazole-3,1′-cyclopropane]-8-carboxamide]",8.6,-24.7,13.4,9.4,-0.1,-14.7,-2.7,9.1,-60.6,-13,-1.3,24.1,30.6,10
